Data set [1] relates to Salmonella strains (TA98, TA100, TA1537 and TA1535). The format is cell-based. The note with it: with and without rat liver S9; 4 Salmonella strains. The protocol:
Compounds were assessed for mutagenicity at Eurofins Panlabs. in 384-well plates using four Salmonella strains: TA98, to probe for frameshift mutation (with quercetin as control), TA100 and TA1535, to probe for base pair […] (with streptozotocin as control), and TA1537, to probe for frameshift mutations (with aminoacridine as control) as previously described.^21 Each compound was incubated at 37° C. for 96 h at four different concentrations (5, 10, 50, and 100 μM), with each concentration tested using 48 replicates, both with and without rat liver S9 metabolic activation. A concurrent bacterial cytotoxicity assay was ran at 0.6, 1.2, 2.5, 5, 10, 25, 50 and 100 μM to rule out false negatives. Bacterial cytotoxicity was expressed as percent of control growth (OD650). Compounds with growth of less than 60% control were flagged and considered bacterial cytotoxic. […] Significances of the positive counts between the treatment and control were determined using one-tailed Fisher's exact test.

A further data set deals with MDCKII-MDR1 cells. The data set can be described thus: MDCKII-MDR1 cell permeability assay. The format is in vitro ADME, canine. The protocol:
(§1) Compounds were evaluated at Pharmaron Inc. for their ability to permeate Caco-2 cells and MDCKII-MDR1 cells. A 96-well HTS Transwell plate (Corning) was used for the Caco-2 and MDCKII-MDR1 cell seeding. Caco-2 cells were seeded at a density of 6.86×10^5 cells/mL and cultivated for 14-18 days prior to assays. MDCKII-MDR1 cells were seeded at a density of 1.56×10^6 cells/mL and cultivated for 4-8 days prior to assays. To determine the rate of drug transport in both the absorptive (apical to basolateral (A-B)) and secretory (basolateral to apical (B-A)) directions, compounds (5 μM in DMSO for Caco-2 cells, and 1 μM in DMSO for MDCKII-MDR1 cells) were added to the donor wells. Plates were incubated at 37° C. for 2 h and samples (50 μL) were taken at the beginning and end of the incubation in both the donor and acceptor wells with the assay run in duplicate (n=2). Samples were analyzed by LC-MS/MS. The apparent permeability coefficient (Papp) in units (cm/s×10^−6) was calculated using the following equation.
(§2) where, VA represents the volume (mL) in the acceptor well. Area is the surface of the membrane (0.143 cm^2 for Transwell-96 well plate) and time is the total transport time in sec.
(§3) The efflux ratio was determined using the following equation: Efflux ratio=Papp (B-A)/Papp(A-B)
(§4) Where, Papp (B-A) indicates the apparent permeability in the basolateral to apical direction, and Papp (A-B) indicates the apparent permeability in the apical to basolateral direction.

In a further data set the test system is Caco-2 cells. Nature of the data set: Caco-2 cell permeability assay. It counts as in vitro ADME. To be noted: for efflux / permeability: result in words. The protocol: as §1, §2, §3, §4
Background: Passage across Caco-2 layers is used to estimate intestinal permeability.

Data set [2] concerns activating mutant bearing EGFR. Nature of the data set: KinaseProfiler enzymatic radiometric biochemical inhibition (IC50). To be noted: ATP 10 μM, result in words. The protocol:
(§5) In vitro kinase activity (inhibitor binding constants (Kd) and biochemical inhibition (IC50's)) were assessed by Eurofins DiscoverX (Kd determinations) and Eurofins Cerep (biochemical IC50 determinations).

The target of data set [3] is activating mutant bearing EGFR. Nature of the data set: KINOMEScan KdELECT inhibitor binding constants (Kd). To be noted: result in words. The protocol: as §5

As to `COc1cc2ncnc(Nc3ccc(F)c(Cl)c3)c2cc1OCCCN1CCOCC1` [Compound 1, Gefitinib, reference compound], the “mutagenicity in AMES fluctuation assay” value in data set [1] is “neither 1 or 6 were mutagenic”.
`COc1cc2ncnc(Nc3ccc(F)c(Cl)c3)c2cc1OCCON1CCOCC1` [Compound 6, N-(3-chloro-4-fluorophenyl)-7-methoxy-6-(2-(morpholinooxy)ethoxy)quinazolin-4-amine]: the “increase in permeability compared to 1” value in the data set on MDCKII-MDR1 cells was “roughly 4 fold”. Also, the efflux entry with MDCKII-MDR1 cells (result in words) is listed as “decreased efflux”. For the same compound, in the data set with Caco-2 cells, the “enhancement in permeability compared to 1” value is on record as 14 fold and the efflux result is listed as “greatly decreased efflux”. In addition, the “biochemical inhibition (IC50)” value in data set [2] is recorded as “single-digit nanomolar”. In addition, the “mutagenicity in AMES fluctuation assay” value in data set [1] is given as “neither 1 or 6 were mutagenic”. Also, the “inhibitor-binding constants (Kd)” value in data set [3] is listed as “single-digit nanomolar”.
`COc1cc2ncnc(Nc3ccc(F)c(Cl)c3)c2cc1OCCON1CCN(C)CC1` [Compound 14, N-(3-chloro-4-fluorophenyl)-7-methoxy-6-(2-((4-methylpiperazin-1-yl)oxy)ethoxy)quinazolin-4-amine]: in the data set on Caco-2 cells, the efflux entry is “high efflux” and the permeability result was “low permeability”.
As to `COc1cc2ncnc(Nc3cccc(Cl)c3F)c2cc1OCCON1CCOCC1` [Compound 13, N-(3-chloro-2-fluorophenyl)-7-methoxy-6-(2-(morpholinooxy)ethoxy)quinazolin-4-amine], in the data set with MDCKII-MDR1 cells (result in words), the efflux result is reported as “low efflux” and the permeability result is “excellent permeability”. Further, in the data set with Caco-2 cells, the efflux entry is given as “reduced efflux ratios” and the permeability result is “remarkably enhanced permeability”.

Values taken from patent US20250236596A1, “HYDROXYLAMINE-BASED EGFR INHIBITORS FOR TREATMENT OF CANCER WITH BRAIN METASTASES” (University of Georgia Research Foundation, Inc., priority 2022, published 2025).
